The test system of assay [1] is C57BL/6 male mice. In words: Protection against a lethal dose of TNF-α (TNF-α induced shock). The conditions noted are these: for Animals surviving 48 hours after TNF-α administration: TNF-α 10 μg i.v., 20 mg/kg/day i.p. three injections, total animals 9, 6, 6. The assay is classed as in vivo. The procedure:
A model of TNF-α induced shock in C57BL/6 male mice was performed as follows. Animals from the control group received an Intravenous administration of a lethal dose of TNF-α (10 μg) in the tail. Animals from the test group received three intraperitoneous injections of a pteridine derivative (20 mg/kg/day) respectively 48 hours, 24 hours and immediately before an intravenous injection of TNF-α (10 μg).

For assay [2], the system named is human IL-1β. In words: IL-1β assay: suppression of IL-1β production by LPS-stimulated PBMC (sandwich ELISA). It counts as cell-based. The conditions noted are these: LPS 1 μg/ml, 72 hours at 37° C. The method, then:
(§1) Peripheral blood mononuclear cells (herein referred as PBMC), in response to stimulation by lipopolysaccharide (LPS), a gram-negative bacterial endotoxin, produce various […], in particular human TNF-α and IL-1β. The inhibition of the activation of PBMC can be measured by the level of suppression of the production of TNF-α or IL-1β by PBMC in response to stimulation by LPS.
(§2) Such inhibition measurement was performed as follows: PBMC were isolated from heparinized peripheral blood (Buffy coat) by density gradient centrifugation. LPS is then added to the PMBC suspension in complete medium (10^6 cells/ml) at a final concentration of 1 μg/ml. The pteridine derivative to be tested was added at different dilution levels, and the cells were incubated at 37° C. for 72 hours. The supernatants were collected, and TNF-α or IL-1β concentrations were measured with respectively an anti-TNF antibody or an anti-IL-1β antibody in a sandwich ELISA (Duo Set ELISA human TNFα, commercially available from R&D Systems, United Kingdom). The colorimetric reading of the ELISA was measured by a Multiskan RC plate reader (commercially available from ThermoLabsystems, Finland) at 450 nm (reference wavelength: 690 nm). Data analysis was performed with Ascent software 2.6. (also from ThermoLabsystems, Finland): a standard curve (recombinant human TNFα) was drawn and the amount (pg/ml) of each sample on the standard curve was determined.
(§3) The % inhibition of human TNF-α production or human IL-1β was calculated using the formula: % inhibition=[…] wherein: min.: pg/ml in culture medium without test compound, and
(§4) max.: pg/ml in culture medium+LPS without test compound.

Assay [3] concerns melanoma (B16BL/6) in C57BL6 (B6) mice. Briefly: Reduction of tumor growth while inhibiting TNF-α toxicity, melanoma tumor model. The assay is classed as in vivo. The procedure: A tumor model of melanoma (B16BL/6) in C57BL6 (B6) mice was performed as follows. On day 1, a group of 18 B6 mice were injected with 1.5×10^6 B16BL/6 melanosarcoma cells. The group was further divided into the following subgroups 3 days after the tumor cells injection: • a first control sub-group of 6 mice received vehicle (physiological solution) 3 times a week starting on day 3; • a second control subgroup of 5 mice received TNF-α (15 μg) on day 5 and, for surviving animals, TNF-α was again administered 3 times a week for 2 weeks; • a test sub-group of 7 mice intraperitoneously received the pteridine derivative of example 24 at a dose of 20 mg/kg on each of days 3, 4 and 5; the latter third injection on day 5 occurred 2 hours before a first TNF-α intravenous injection (15 μg). Then the test compound (20 mg/kg/day) and TNF-α (15 μg/day) were administered each subcutaneously 3 times a week for 2 weeks.

In assay [4] the test system is C3H mice. In words: Protection against lethal toxic shock (LPS injection). It counts as in vivo.
Assay [5] concerns human TNF-α. Briefly: TNF-α assay: suppression of TNF-α production by LPS-stimulated PBMC (sandwich ELISA). The assay is classed as cell-based. The conditions noted are these: LPS 1 μg/ml, 72 hours at 37° C. The procedure: as §1, §2, §3, §4
[6] abbreviates: group of 16 C3H mice, 100 μg LPS i.p., 20 mg/kg/day i.p. for 2 days.

Usually IC50 stands for the midpoint of a concentration-inhibition curve. `COc1ccc(-c2cnc3nc(N)nc(N4CCOCC4)c3n2)cc1OC` [Example 24, 2-amino-4-morpholino-6-(3,4-dimethoxyphenyl)pteridine]: in assay [1], the “Animals surviving 48 hours after TNF-α administration” value (shortened to “Animals surviving 48 hours”) amounted to 7. Further, in assay [1] (followed for 48 hours after TNF-α 10 μg i.v., 20 mg/kg/day i.p. 48 h, 24 h and immediately before, control 28.2° C.), the body temperature was determined as 30.1 °C. For the same compound, inhibition in assay [2] (Homo sapiens) was half-maximal at 5.5 µM (IC50). The “average tumor size (largest diameter multiplied by smallest diameter)” value in assay [3] (after two weeks treatment together with TNF-α, first control group 439 mm^2) was determined as 144 mm^2. The “animals of the test sub-group survived” value in assay [3] (out of 7 tumor bearing mice, 20 mg/kg plus TNF-α 15 μg, second control group all died) is reported as 5. In assay [4] (setting [6]), the “animals permanently survived the challenge of a LPS lethal dose” value came to 14 and the “animals showing a significantly prolonged survival” value came out at 2. This compound gave a prolonged survival in assay [4] (the 2 animals that did not survive permanently, controls die within 1-3 days) of 5 days.

On to `CC(C)Oc1nc(N)nc(N)c1N` [Example 59, 2,5,6-triamino-4-isopropoxy-pyrimidine], for which the midpoint of inhibition in assay [5], the IC50, lay at 8 µM.

On to `CC(C)Oc1nc(N)nc2ncc(Cl)nc12` [Example 65, 2-amino-6-chloro-4-isopropoxypteridine], for which the midpoint of inhibition in assay [5], the IC50, lay at 9.1 µM. This IC50 and that of the compound before are within 1.5-fold of each other. The same measure, in the same setting: for `CCOc1nc(N)nc2ncc(-c3ccccc3OC)nc12` [Example 67, 2-amino-6-(o-methoxyphenyl)-4-ethoxy-pteridine] the value was 10 µM.

Turning to `CCOc1nc(N)nc2ncc(-c3cccc(OC)c3)nc12` [Example 68, 2-amino-6-(m-methoxyphenyl)-4-ethoxy-pteridine], the IC50 in assay [5] is 10 µM. This counts as double-digit micromolar. For the compound `CCOc1nc(N)nc2ncc(-c3cccs3)nc12` [Example 72, 2-amino-6-(2-thienyl)-4-ethoxy-pteridine], in assay [5], the IC50 was 8.5 µM. Same read-out and setting: for `CCOc1nc(N)nc2ncc(-c3ccc(F)cc3)nc12` [Example 77, 2-amino-6-(p-fluorophenyl)-4-ethoxy-pteridine] the value was 8.1 µM; for `CCOc1nc(N)nc2ncc(-c3ccc(F)c(C)c3)nc12` [Example 80, 2-amino-6-(3-methyl-4-fluorophenyl)-4-ethoxy-pteridine], 6.8 µM; for `CCOc1nc(N)nc2ncc(-c3ccc(OC)c(OC)c3)nc12` [Example 83, 2-amino-6-(3,4-dimethoxyphenyl)-4-ethoxy-pteridine], 6.6 µM. On to `Cc1ccc(-c2cnc3nc(N)nc(OC(C)C)c3n2)cc1C` [Example 85, 2-amino-6-(3,4-dimethylphenyl)-4-isopropoxypteridine], for which the concentration for half-maximal inhibition (IC50) in assay [2] (Homo sapiens) is > 40 µM. On to `CC(C)Oc1nc(N)nc2ncc(-c3ccc(F)c(Cl)c3)nc12` [Example 87, 2-amino-6-(3-chloro-4-fluorophenyl)-4-isopropoxypteridine], for which, in assay [5], the IC50 was 7.5 µM. In the case of `CCOc1ccc(-c2cnc3nc(N)nc(OC(C)C)c3n2)cc1` [Example 92, 2-amino-6-(p-ethoxyphenyl)-4-isopropoxypteridine], the half-maximal inhibitory concentration (IC50) in assay [5] stood at 10 µM.

In turn, `CC(C)Oc1nc(N)nc2ncc(-c3ccsc3)nc12` [Example 94, 2-amino-6-(3-thienyl)-4-isopropoxypteridine] registered a 50% inhibitory concentration (IC50) in assay [5] of 7.6 µM. The same measure, in the same setting: then `CC(=O)c1ccc(-c2cnc3nc(N)nc(OC(C)C)c3n2)cc1` [Example 97, 2-amino-6-(p-acetylphenyl)-4-isopropoxypteridine], with 9.1 µM. In the case of `COc1ccc(-c2cnc3nc(N)nc(OC(C)C)c3n2)cc1OC` [Example 98, 2-amino-6-(3,4-dimethoxyphenyl)-4-isopropoxypteridine], the values for the half-inhibitory concentration (IC50) in assay [5] and in assay [2] (Homo sapiens) were 3.5 µM and > 40 µM, respectively. The “Animals surviving 48 hours” value in assay [1] was 3. As for `COc1ccc(-c2cnc3nc(N)nc(N4CC=CCC4)c3n2)cc1OC` [Example 119, 2-amino-4-(1,2,3,6-tetrahydropyridinyl)-6-(3,4-dimethoxyphenyl)pteridine], the “Animals surviving 48 hours” value in assay [1] was found to be 3. In assay [2], this compound had an IC50 of 15 µM. In the case of `COc1ccc(-c2cnc3nc(NCc4cccs4)nc(N)c3n2)cc1OC` [Example 143, 2-(2-thienylmethylamino)-4-amino-6-(3,4-dimethoxyphenyl)pteridine], in assay [5], the IC50 worked out at 10 µM. This lies in the double-digit micromolar range. `COc1ccc(-c2cnc3nc(NCc4ccccc4)nc(N)c3n2)cc1OC` [Example 145, 2-benzylamino-4-amino-6-(3,4-dimethoxyphenyl)pteridine]: the IC50 in assay [5] turned out to be 9.3 µM. The IC50 values of the last two compounds are within 1.5-fold of each other. `Nc1nc(N2CCOCC2)c2nc(-c3ccc(NC(=O)COc4ccccc4)cc3)cnc2n1` [Example 160, 2-amino-4-morpholino-6-(4-phenoxyacetylaminophenyl)pteridine] yielded an IC50 in assay [5] of 4.9 µM. Still for that read-out and setting: then `Nc1nc(N2CCOCC2)c2nc(-c3ccc(NC(=O)c4ccncc4)cc3)cnc2n1` [Example 166, 2-amino-4-morpholino-6-(4-isonicotinoylaminophenyl)pteridine], with 4.4 µM; and `Nc1nc(N2CCOCC2)c2nc(-c3cccc(NC(=O)c4ccccc4)c3)cnc2n1` [Example 171, 2-amino-4-morpholino-6-(3-benzoylaminophenyl)pteridine], with 4.3 µM; and `Nc1nc(N2CCOCC2)c2nc(-c3cccc(NS(=O)(=O)c4ccccc4)c3)cnc2n1` [Example 172, 2-amino-4-morpholino-6-(3-benzensulfonylaminophenyl)pteridine], with 0.5 µM. The same measure, in the same setting: then `Nc1nc(N2CCOCC2)c2nc(-c3cccc(NC(=O)c4ccncc4)c3)cnc2n1` [Example 174, 2-amino-4-morpholino-6-(3-isonicotinoylaminophenyl)pteridine], with 7.3 µM; and `Nc1nc(N2CCOCC2)c2nc(-c3cccc(NC(=O)C4CCCCC4)c3)cnc2n1` [Example 175, 2-amino-4-morpholino-6-(3-cyclohexanoylaminophenyl)pteridine], with 5 µM.

`Nc1nc(N2CCOCC2)c2nc(-c3cccc(NC(=O)COCc4ccccc4)c3)cnc2n1` [Example 179, 2-amino-4-morpholino-6-(3-benzyloxyacetylaminophenyl)pteridine]: the IC50 in assay [5] came out at 7.7 µM.

`CCS(=O)(=O)Nc1cccc(-c2cnc3nc(N)nc(N4CCOCC4)c3n2)c1` [Example 180, 2-amino-4-morpholino-6-(3-ethylsulfonylaminophenyl)pteridine]: in assay [5], the IC50 worked out at 10 µM. Same read-out and setting: then `CCOc1ccc(-c2cnc3nc(N)nc(N4CCOCC4)c3n2)cc1` [Example 186, 2-amino-4-morpholino-6-(4-ethoxyphenyl)pteridine], with 10 µM. `CCCOc1ccc(-c2cnc3nc(N)nc(N4CCOCC4)c3n2)cc1` [Example 190, 2-amino-4-morpholino-6-(4-propoxy-phenyl)pteridine] showed an IC50 in assay [5] of 10 µM.

On to `COCCOc1ccc(-c2cnc3nc(N)nc(N4CCOCC4)c3n2)cc1` [Example 193, 2-amino-4-morpholino-6-(4-(2-methoxyethoxy)-phenyl)pteridine], for which, in assay [5], the half-maximal inhibitory concentration (IC50) was 7.2 µM.

The values above are taken from US20070004721A1, “Pteridine derivatives for the treatment of septic shock and tnf-a-related diseases” (priority 2003, published 2007).
